The results in this text go back to patent US20260015340A1, “COMPOUND INCLUDING 2,4-DIAMINOPYRIDINE, PREPARATION METHOD THEREFOR, AND PHARMACEUTICAL COMPOSITION CONTAINING SAME AS ACTIVE INGREDIENT FOR PREVENTION OR TREATMENT OF CANCER” (KOREA RESEARCH INSTITUTE OF CHEMICAL TECHNOLOGY, priority 2022, published 2026).

One assay deals with HPK1 (h) (Homo sapiens (Human), UniProt Q92918). As to the kind of experiment: Inhibition against kinase activity of HPK1 (33P-ATP filter assay). It counts as biochemical. Here is the method: Inhibition against kinase activity of HPK1 was measured as follows. Recombinant human HPK1 protein was mixed with the compounds in a reaction solution (8 mM MOPS, pH 7.0, 0.2 mM EDTA, 0.33 mg/mL myelin basic protein, 10 mM magnesium acetate, and 15 μM [gamma-33P-ATP]). The mixture was incubated at room temperature for 40 minutes. The reaction was terminated by adding phosphoric acid at a final concentration of 0.5%. A 10 μL aliquot of the reaction solution was spotted onto a P30 filter, washed four times in 0.425% phosphoric acid solution for 4 minutes each, and washed once with methanol. The filters were dried, and HPK1 activity was measured via scintillation counting. The HPK1 activity observed in the control group free of the compounds was set as 100%, and the inhibition by the compounds was expressed relative to this control value. To calculate the IC50 value, the compounds were diluted in 9 concentrations, starting from a maximum of 1 μM in a threefold serial dilution. The IC50 was defined as the concentration at which 50% inhibition was observed.

The next assay concerns the target MLK3 (h) (Homo sapiens, UniProt Q16584). Nature of the assay: Inhibition against kinase activity of MLK3 (33P-ATP filter assay). It counts as biochemical. Here is the method:
The kinase inhibition activity against MLK3 was measured as follows. Recombinant human […] protein was mixed with the compounds in a reaction solution (8 mM MOPS, pH 7.0, 0.2 mM EDTA, 0.33 mg/mL myelin basic protein, 5 mM DTT, 10 mM magnesium acetate, and 45 μM [gamma-33P-ATP]). The mixture was incubated at room temperature for 40 minutes. The reaction was terminated by adding phosphoric acid at a final concentration of 0.5%. A 10 μL aliquot of the reaction solution was then spotted onto a P30 filter, which was washed four times in 0.425% phosphoric acid solution for 4 minutes each and then washed once in methanol. The filters were dried, and MLK3 activity was measured via scintillation counting. The MLK3 activity observed in the control group free of the compounds was set as 100%, and the inhibition by the compounds was expressed relative to this control value. To calculate the IC50 value, the compounds were diluted in 9 concentrations, starting from a maximum of 1 μM in a threefold serial dilution. The IC50 was defined as the concentration at which 50% inhibition was observed.

Assay [1] relates to cisplatin-resistant cell line A2780/cis. As to the kind of experiment: Anticancer activity, CCK8 cell viability. It counts as cell-based. Particulars: Homo sapiens, A2780cis, 72 h, A2780/cis cells, three days, FIG. 1. The procedure:
(§1) The anticancer activity of the MLK3 and HPK1 kinase inhibitor compounds was evaluated using the human ovarian cancer cell line A2780 and the cisplatin-resistant cell line A2780/cis. A2780 and A2780/cis cells were cultured at a density of 4000 cells per well in 96-well plates and stabilized for one day. The compounds 1 to 3 synthesized in Example 1 were serially diluted starting from a concentration of 10 μM and applied to the cells. The treated cells were incubated for three days, and cell viability was measured using CCK8 reagent, with the concentration at which 50% of the cancer cells died expressed as the GI50.

Assay [2] deals with human ovarian cancer cell line A2780. As to the kind of experiment: Anticancer activity, CCK8 cell viability. The format is cell-based. Particulars: 72 h, A2780 cells, three days, FIG. 1. Here is the method:
as §1

For a further assay, the system named is A549. Nature of the assay: Anticancer activity in other cancer cell lines. It counts as cell-based. The following applies: Homo sapiens. Here is the method: as §1
(§2) Additionally, the anticancer activity of the compounds was also observed in other cancer cell lines (blood cancer, breast cancer, ovarian cancer, lung cancer, and brain cancer), as well as in drug-resistant cancer cell lines (doxorubicin-resistant blood cancer K562/ADM; and paclitaxel-resistant breast cancer MDA-MB-231/PTX).

Another assay concerns K562. As to the kind of experiment: Anticancer activity in other cancer cell lines. The format is cell-based. The following applies: Homo sapiens. The procedure: as §1, §2
A further assay has as its system MDA-MB-231. As to the kind of experiment: Anticancer activity in other cancer cell lines. The following applies: Homo sapiens. The format is cell-based. Here is the method:
as §1, §2

The next assay concerns MDA-MB-453. Nature of the assay: Anticancer activity in other cancer cell lines. The format is cell-based. The following applies: Homo sapiens. The procedure:
as §1, §2

The next assay has as its system SH-SY5Y. As to the kind of experiment: Anticancer activity in other cancer cell lines. The format is cell-based. Particulars: Homo sapiens. The procedure:
as §1, §2

Another assay concerns SKOV3. Nature of the assay: Anticancer activity in other cancer cell lines. It counts as cell-based. Particulars: Homo sapiens, SK-OV-3. The procedure:
as §1, §2

For another assay, the system named is U937. Nature of the assay: Anticancer activity in other cancer cell lines. It counts as cell-based. The following applies: Homo sapiens, U-937. Here is the method:
as §1, §2

Assay [3] deals with doxorubicin-resistant blood cancer K562/ADM. Nature of the assay: Anticancer activity in other cancer cell lines. The format is cell-based. The following applies: Homo sapiens. Here is the method: as §1, §2
Assay [4] concerns paclitaxel-resistant breast cancer MDA-MB-231/PTX. As to the kind of experiment: Anticancer activity in other cancer cell lines. Particulars: Homo sapiens. The format is cell-based. Here is the method:
as §1, §2

Another assay relates to Human PBMC. Nature of the assay: IL-2 measurement for T cell activation enhancement. The format is cell-based. Particulars: CD3/CD28 Dynabeads, 6 days, FIG. 2. The procedure:
Human PBMC was seeded at a density of 2×10^5 cells per well in a 96-well plate. The cells were pretreated for one hour with serial dilutions of the compounds 1 to 3 synthesized in Example 1 starting from 3 μM. Afterward, CD3/CD28 Dynabeads were added to the cells at a 1:1 ratio and incubated for 6 days. After incubation, the cells and media were analyzed using the Sartorius human T cell activation cell and cytokine profiling kit with the iQue system. IL-2, a biomarker used to assess T cell activation, was measured. The results were calculated by setting the positive control group (treated with Dynabeads alone) as 100%.

The mark [5] stands for this setting: HPK1 (h), 15 μM ATP, read-out: IC50.
Setting [6] is: approximate value, read-out: IC50 value for HPK1 inhibition.
The mark [7] stands for this setting: MLK3 (h), 45 μM ATP, read-out: IC50.
[8] abbreviates: approximate value, read-out: IC50 value for MLK3 inhibition.

SMILES strings stand for the structures. Where two headings read alike, the source gives them in different places.

Chain of MLK3 (h) (Q16584 whole entry, looked up): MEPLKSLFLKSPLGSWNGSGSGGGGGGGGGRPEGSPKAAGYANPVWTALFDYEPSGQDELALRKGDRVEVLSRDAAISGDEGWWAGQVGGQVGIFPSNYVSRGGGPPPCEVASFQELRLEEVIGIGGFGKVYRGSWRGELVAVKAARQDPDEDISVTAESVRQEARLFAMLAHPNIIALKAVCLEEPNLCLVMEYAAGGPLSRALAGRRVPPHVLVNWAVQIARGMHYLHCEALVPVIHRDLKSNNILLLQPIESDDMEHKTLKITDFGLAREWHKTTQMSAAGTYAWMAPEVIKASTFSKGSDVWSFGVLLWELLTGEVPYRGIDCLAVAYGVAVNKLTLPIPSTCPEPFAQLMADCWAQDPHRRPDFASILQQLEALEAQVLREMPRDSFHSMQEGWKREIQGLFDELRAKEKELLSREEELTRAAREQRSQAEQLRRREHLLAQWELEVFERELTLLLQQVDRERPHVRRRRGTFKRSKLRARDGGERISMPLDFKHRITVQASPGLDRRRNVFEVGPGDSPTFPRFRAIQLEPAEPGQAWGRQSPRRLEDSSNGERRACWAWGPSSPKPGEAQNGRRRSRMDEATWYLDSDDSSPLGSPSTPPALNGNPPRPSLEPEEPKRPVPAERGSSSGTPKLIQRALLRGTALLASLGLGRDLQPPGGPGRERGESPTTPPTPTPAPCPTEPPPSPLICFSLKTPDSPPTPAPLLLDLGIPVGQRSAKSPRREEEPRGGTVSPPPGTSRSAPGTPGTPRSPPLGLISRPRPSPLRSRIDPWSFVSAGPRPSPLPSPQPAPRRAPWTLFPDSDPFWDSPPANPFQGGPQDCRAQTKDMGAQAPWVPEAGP
Chain of HPK1 (h) (Q92918 whole entry): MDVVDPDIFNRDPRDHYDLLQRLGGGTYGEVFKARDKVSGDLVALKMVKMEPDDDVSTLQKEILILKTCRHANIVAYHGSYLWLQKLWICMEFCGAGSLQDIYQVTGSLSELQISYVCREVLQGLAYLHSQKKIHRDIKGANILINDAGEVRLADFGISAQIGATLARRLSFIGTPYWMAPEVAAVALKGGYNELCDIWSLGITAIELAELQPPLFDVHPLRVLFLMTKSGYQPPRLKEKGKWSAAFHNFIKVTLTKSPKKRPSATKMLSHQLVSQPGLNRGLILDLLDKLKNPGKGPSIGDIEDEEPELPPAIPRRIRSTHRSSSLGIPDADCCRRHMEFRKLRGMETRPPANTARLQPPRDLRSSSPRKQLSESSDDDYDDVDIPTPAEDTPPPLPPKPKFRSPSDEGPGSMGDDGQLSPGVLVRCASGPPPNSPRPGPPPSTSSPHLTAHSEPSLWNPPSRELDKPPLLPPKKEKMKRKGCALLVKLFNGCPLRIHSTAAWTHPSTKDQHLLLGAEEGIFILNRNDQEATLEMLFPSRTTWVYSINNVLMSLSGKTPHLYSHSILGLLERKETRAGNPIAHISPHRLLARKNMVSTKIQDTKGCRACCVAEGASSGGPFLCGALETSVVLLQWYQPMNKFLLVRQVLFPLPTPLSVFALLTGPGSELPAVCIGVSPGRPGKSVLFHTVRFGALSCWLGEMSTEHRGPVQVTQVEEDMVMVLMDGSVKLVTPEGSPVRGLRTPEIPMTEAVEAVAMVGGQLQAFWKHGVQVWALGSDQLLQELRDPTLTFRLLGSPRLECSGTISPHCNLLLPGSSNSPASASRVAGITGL

As usually defined, the IC50 is the concentration that gives 50% inhibition. One may read the GI50 as the concentration giving 50% growth inhibition. A low value points to greater sensitivity of the cells. For the molecule `CC1(C)OC(=O)c2ccc(Nc3nc(Nc4ccc5c(c4)CCNC5)ncc3Cl)cc21` [Compound 1, 5-((5-chloro-2-((1,2,3,4-tetrahydroisoquinolin-6-yl)amino)pyrimidin-4-yl)amino)-3,3-dimethylisobenzofuran-1(3H)-one], the 50% inhibitory concentration (IC50) at HPK1 (h) (setting [5]) was 1 to 100 nM; on HPK1 (h) (setting [6]) it was around 30 nM; at MLK3 (h) (setting [7]), 100 to 500 nM; at MLK3 (h) (setting [8]), around 140 nM. The concentration for 50% growth inhibition (GI50) in assay [1] is around 400 nM; in assay [2] it was around 200 nM; in the assay with A549, 1610 nM; in the assay on K562 it was 430 nM; with MDA-MB-231, 1250 nM; in the assay with MDA-MB-453, 1020 nM. Also, the GI50 in the assay on SH-SY5Y is 390 nM; with SKOV3 it was 1700 nM; with U937, 290 nM; in assay [3] it was 3740 nM; in [4], 990 nM. Besides, in the assay with Human PBMC, the “IL-2 levels (T cell activation)” value is recorded as “increased IL-2 levels”.
Turning to `CC1(C)OC(=O)c2cc(Nc3nc(Nc4ccc5c(c4)CCNC5)ncc3Cl)ccc21` [Compound 2, 6-((5-chloro-2-((1,2,3,4-tetrahydroisoquinolin-6-yl)amino)pyrimidin-4-yl)amino)-3,3-dimethylisobenzofuran-1(3H)-one], the half-maximal inhibitory concentration (IC50) on HPK1 (h) (setting [5]) is 1 to 100 nM; on HPK1 (h) (setting [6]), around 50 nM; on MLK3 (h) (setting [7]), 100 to 500 nM; on MLK3 (h) (setting [8]), around 200 nM. Besides, the 50% growth inhibitory concentration (GI50) is around 310 nM in assay [1]; around 210 nM in [2]; 1150 nM in the assay with A549; 1070 nM with K562; 1030 nM in the assay on MDA-MB-231; 2900 nM in the assay on MDA-MB-453. The concentration for 50% growth inhibition (GI50) in the assay on SH-SY5Y worked out at 280 nM; with SKOV3, 1500 nM; in the assay on U937 it was 440 nM; in [3] it was 2280 nM; in assay [4] it was 770 nM. The “IL-2 levels (T cell activation)” value with Human PBMC is given as “increased IL-2 levels”.
As to `CC1(C)OC(=O)c2ccc(Nc3ncc(Cl)c(Nc4ccc5c(c4)C(C)(C)OC5=O)n3)cc21` [Compound 3, 5,5′-((5-Chloropyrimidine-2,4-diyl)bis(azanediyl))bis(3,3-dimethylisobenzofuran-1(3H)-one)], the half-maximal inhibitory concentration (IC50) at HPK1 (h) (setting [5]) is 500 to 1000 nM; on HPK1 (h) (setting [6]) it was around 900 nM; on MLK3 (h) (setting [7]), above 1000 nM. Also, the concentration for 50% growth inhibition (GI50) in the assay with A549 is above 10000 nM; with K562, above 10000 nM; in the assay on MDA-MB-231 it was 1350 nM; with MDA-MB-453, 1070 nM; with SH-SY5Y it was 550 nM; in the assay on SKOV3, above 10000 nM. Further, the results for the GI50 (with U937; in [3]; in assay [4]) were above 10000 nM, above 10000 nM and 1110 nM, respectively.
